From article PMC6526634, “Preparation of bioactive peptides with antidiabetic, antihypertensive, and antioxidant activities and identification of α‐glucosidase inhibitory peptides from soy protein” (Food Science & Nutrition, 2019)
Where a SMILES comes first, the peptide text is derived from it.

What was measured:
[1] = target: T1, α‐glucosidase from Saccharomyces cerevisiae (Saccharomyces cerevisiae, UniProt P53341); assay: α‐glucosidase inhibitory activity assay; type: biochemical
T1 construct: purchased Sigma-Aldrich
T1 sequence (P53341 whole entry): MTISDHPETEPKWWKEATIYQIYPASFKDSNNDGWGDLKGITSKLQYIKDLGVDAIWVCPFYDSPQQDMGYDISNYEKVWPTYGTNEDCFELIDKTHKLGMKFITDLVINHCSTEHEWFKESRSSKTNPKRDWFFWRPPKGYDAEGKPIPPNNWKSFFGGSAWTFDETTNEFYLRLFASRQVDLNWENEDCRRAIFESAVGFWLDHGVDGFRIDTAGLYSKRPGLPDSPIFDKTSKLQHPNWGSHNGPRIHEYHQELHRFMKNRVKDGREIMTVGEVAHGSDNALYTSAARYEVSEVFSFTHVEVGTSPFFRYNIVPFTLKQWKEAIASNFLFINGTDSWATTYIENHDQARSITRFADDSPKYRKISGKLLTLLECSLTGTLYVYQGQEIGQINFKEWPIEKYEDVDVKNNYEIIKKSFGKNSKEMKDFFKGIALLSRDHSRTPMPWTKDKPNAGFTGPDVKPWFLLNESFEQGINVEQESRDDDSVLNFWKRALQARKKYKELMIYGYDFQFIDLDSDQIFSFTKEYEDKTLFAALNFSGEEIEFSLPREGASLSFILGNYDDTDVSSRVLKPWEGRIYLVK
Method: All other chemicals and reagents were of analytical grade and commercially available.
α‐glucosidase inhibitory activity assay was performed according to a method by Kim with slight modifications (Kim, Wang, & Rhee, 2004). The α‐glucosidase inhibitory rate of the hydrolysate was estimated in a 96‐well microplate using a MR‐96A microplate reader (Mindray) by monitoring the amount of 4‐nitrophenol (PNP) released from 4‐nitrophenol‐α‐D‐glucopyranoside (PNPG). A dose (50 μl) of sodium phosphate buffer (pH 6.8, 0.2 M), 50 μL of PNPG (1 mg/ml) dissolved in sodium phosphate buffer, and 50 μl of the samples dissolved in the same buffer were mixed adequately in a 96‐well microplate. Then, it was incubated for 5 min at 37°C, and the reaction started immediately followed by the addition of 10 μl of α‐glucosidase solution (0.2 U/ml of the buffer). The plate was incubated for another 30 min at 37°C, and then, the reaction was terminated by the addition of 80 μl of 1 M Na2CO3 solution. The absorbance of released product PNP was measured immediately at 405 nm. […] The percentage of α‐glucosidase inhibition was calculated as follows:(1) α-glucosidase inhibition rate%=ODA-ODS/ODA-ODB×100 where ODA is the absorbance of the supernatant in which the sample is replaced by the same amount of buffer; ODS is the absorbance of the supernatant with the tested sample; and ODBis the absorbance of the supernatant in which the tested sample and α‐glucosidase solution are replaced by the same amount of buffer.

[2] = Hydroxyl radical scavenging ability; conditions: Fenton reaction, salicylic acid, 37℃, 30 min, absorbance 510 nm; mean ± SD of three replicates
Method: The antioxidant activity of the soy protein peptides was determined by a hydroxyl radical scavenging assay involving in the Fenton reaction, according to Hanasaki (Hanasaki, Ogava, & Fukui, 1994). The samples were prepared into 0.1, 0.5, 2, 5, and 10 mg/ml. Then, 1 ml of 9 µmol/L FeSO4 solution and 1 ml of salicylic acid–ethanol solution (9 µmol/L，50% ethanol solution) were added respectively and mixed well, with the addition of 1 ml of […] H2O2 (0.03%) reaction initiated. The mixture was incubated in a 37℃ water bath for 30 min and then centrifuged at 2,896 g for 5 min to remove the precipitation. The absorbance of the supernatant was measured at 510 nm. The hydroxyl radical clearance rate was calculated as follows:(4) Hydroxyl radical clearance rate%=1-A1-A2/A0×100 where A 1 is the absorbance of the sample supernatant, A 2 is the absorbance of the supernatant in which the salicylic acid–ethanol is replaced by the same amount of ethanol, and A 0 is the absorbance of the supernatant in which the sample is replaced by distilled water. The ascorbic acid was used as a positive control.

[3] = Ferric reducing antioxidant power (FRAP) activity; conditions: 1, 2, 5, 10, and 20 mg/ml, potassium ferricyanide, pH 6.6, 50℃, 30 min, absorbance 700 nm
Method: The FRAP assay was used to determine the antioxidative of the samples using the method described by Tsai et al with some modifications (Tsai, Huang, & Mau, 2006) and to configure the sample solution with the concentration of 1, 2, 5, 10, and 20 mg/ml. Using 1 ml of sample mixed with 2.5 ml of 0.2 mol/L sodium phosphate buffer (pH 6.6) and 2.5 ml of 1% potassium ferricyanide solution incubated at 50℃ for 30 min, add 2.5 ml of 10% trichloroacetic acid solution, centrifuged at 1,042 g for 10 min, and then collected 2.5 ml of supernatant mixed with 2.5 ml of distilled water and 0.5 ml of 0.1% ferric chloride solution. The absorbance at 700 nm was measured after 10 min by a 754 PC spectrophotometer (Shanghai, China). FeSO4 aqueous solution was used as positive control.

Compound: CC(C)C[C@H](NC(=O)[C@@H](NC(=O)[C@@H]1CCCN1C(=O)[C@H](CC(C)C)NC(=O)[C@@H]1CCCN1C(=O)[C@H](CC(C)C)NC(=O)[C@@H](N)CC(C)C)C(C)C)C(=O)N[C@@H](CCCCN)C(=O)O (H-LLPLPVLK-OH)
- IC50 [1]: 237.4 ± 0.52 µM

Compound: CC(C)C[C@H](NC(=O)[C@H](CCCNC(=N)N)NC(=O)[C@H](CC(C)C)NC(=O)[C@H](Cc1c[nH]c2ccccc12)NC(=O)[C@@H](N)CO)C(=O)O [SWLRL] (H-SWLRL-OH)
- IC50 [1]: 182.1 ± 0.74 µM

Compound: CC(C)C[C@H](NC(=O)[C@H](CCCNC(=N)N)NC(=O)[C@H](CC(C)C)NC(=O)[C@@H](N)Cc1c[nH]c2ccccc12)C(=O)O [WLRL] (H-WLRL-OH)
- IC50 [1]: 165.3 ± 0.74 µM

Compound: O=C1O[C@H]([C@@H](O)CO)C(O)=C1O [vitamin C, ascorbic acid]
- hydroxyl radical scavenging ability IC50 [2]: 540 ± 40 µg/mL

Compound: MLPVMR [hexapeptide identified from soy protein AP hydrolysate fraction H1‐2, then synthesized]
- α‐glucosidase inhibition, result in words ([1]; synthetic peptide or DEAE‐52 fraction, test concentration not given): did not show inhibitory activity

Compound: ferrous sulfate [FeSO4]
- iron ion reduction ability (FRAP) [3]: linearly related to concentration
- iron ion reduction ability (FRAP) ([3]; listed as ferrous sulfate): stronger reduction ability
